Laboratory results: patent EP0747380B1, “Compounds and compositions with nitrogen-containing non-basic side chains” (ELI LILLY AND COMPANY, priority 1995, dated 1996)
pEC50: −log10 of the molar value. Like-named read-outs stand apart in the source and are kept apart here. Marks after values point to notes of the source that are not given here.

How the values were obtained:
[1] = system: MCF-7 breast adenocarcinoma cells; test: MCF-7 proliferation assay (tritiated thymidine incorporation); assay type: cell-based; conditions: Homo sapiens, MCF7; MCF-7 cells, 48 hours with drug, tritiated thymidine pulse 4 hours; read-out: ED50 (the source's name)
Description: MCF-7 breast adenocarcinoma cells (ATCC HTB 22) were maintained in MEM (minimal essential medium, phenol red-free, Sigma, St. Louis, MO) supplemented with 10% fetal bovine serum (FBS) (V/V), L-glutamine (2 mM), sodium pyruvate (1 mM), HEPES {(N-[2-hydroxyethyl]piperazine-N'-[2-ethanesulfonic acid]10 mM}, non-essential amino acids and bovine insulin (1 µg/ml) (maintenance medium). Ten days prior to assay, MCF-7 cells were switched to maintenance medium supplemented with 10% dextrancoated charcoal stripped fetal bovine serum (DCC-FBS) assay medium) in place of 10% FBS to deplete internal stores of steroids. MCF-7 cells were removed from maintenance flasks using cell dissociation medium (Ca++/Mg++ free HBSS (phenol red-free) supplemented with 10 mM HEPES and 2 mM EDTA). Cells were washed twice with assay medium and adjusted to 80,000 cells/ml. […] Serial dilutions of drugs or DMSO as a diluent control were prepared in assay medium and […] to triplicate microcultures followed by 50 ml assay medium for a final volume of […]. After an additional 48 hours at 37° C in a 5% CO2 humidified incubator, microcultures were pulsed with tritiated thymidine (1 uCi/well) for 4 hours. Cultures were terminated by freezing at -70° C for 24 hours followed by thawing and harvesting of microcultures. Samples were counted by liquid scintillation.

[2] = system: eosinophil peroxidase activity; test: Uterine eosinophil peroxidase (EPO) assay, OVX rat, four day dosing regimen; conditions: for Uterine EPO (Vmax): oral, daily for 4 days, OVX rats, * = significantly different than OVX control
Description: (§2) Seventy-five day old female Sprague Dawley rats (weight range of 200 to 225 g) were obtained from Charles River Laboratories (Portage, MI). The animals were either bilaterally ovariectomized (OVX) or exposed to a sham surgical procedure (Intact) at Charles River Laboratories, and then shipped after one week. Upon arrival, they were housed in metal hanging cages in groups of 3 or 4 per cage and had ad libitum access to food (calcium content approximately 0.5%) and water for one week. […] The photoperiod in the room was 12 hours light and 12 hours dark.
(§3) After a one week acclimation period (therefore, two weeks post-OVX), daily dosing with test compound was initiated. 17α-Ethynyl estradiol (EE2) (Sigma Chemical Co., St. Louis, MO), an orally available form of estrogen, or the test compound were given orally, unless otherwise stated, as a suspension in 1% carboxymethyl cellulose or dissolved in 20% cyclodextrin. Animals were dosed daily for 4 days. Following the dosing regimen, animals were weighed and anesthetized with a ketamine:xylazine (2:1, v:v) mixture. A blood sample was collected by cardiac puncture. The animals were then sacrificed by asphyxiation with CO2, the uterus was removed through a midline incision, and a wet uterine weight was determined.
(§4) Uteri were kept at 4° C until time of enzymatic analysis. The uteri were then homogenized in 50 volumes of 50 mM Tris buffer (pH - 8.0) containing 0.005% Triton X-100. Upon addition of 0.01% hydrogen peroxide and 10 mM o-phenylenediamine (final concentrations) in Tris buffer, increase in absorbance was monitored for one minute at 450 nm. […] The maximal velocity of a 15 second interval was determined over the initial, linear portion of the reaction curve.

[3] = system: uterus; test: Uterine wet weight, post-menopausal (OVX) rat model, four day dosing regimen; assay type: in vivo, female Sprague Dawley rats; conditions: for Uterine Weight (% inc. OVX): oral, daily for 4 days, OVX rats, * = significantly different than OVX control
Description: In the examples illustrating the methods, a post-menopausal model was used in which effects of different treatments upon various biological parameters were determined, including serum cholesterol concentration, uterine weight, eosinophil peroxidase activity, MCF-7 cell proliferation, and bone density.
(§1) Animals were dosed daily for 4 days. […] A blood sample was collected by cardiac puncture.

[4] = system: serum cholesterol; test: Serum cholesterol analysis, OVX rat, four day dosing regimen; assay type: in vivo, female Sprague Dawley rats
Description: as §1
Blood samples were allowed to clot at room temperature for 2 hours, and serum was obtained following centrifugation for 10 minutes at 3000 rpm. Serum cholesterol was determined using a Boehringer Mannheim Diagnostics high performance cholesterol assay. Briefly the cholesterol was oxidized to cholest-4-en-3-one and hydrogen peroxide. The hydrogen peroxide was then reacted with phenol and 4-aminophenazone in the presence of peroxidase to produce a p-quinone imine dye, which was read spectrophotemetrically at 500 nm. Cholesterol concentration was then calculated against a standard curve. The entire assay was automated using a Biomek Automated Workstation.

[5] = system: eosinophil peroxidase activity; conditions: rat, in vivo, po
Description: as §2, §3, §4

[6] = system: tibia density; test: Bone density assay, OVX rat, thirty-five day dosing regimen (single photon absorptiometry of tibia); assay type: in vivo, female Sprague Dawley rats; conditions: OVX rats, oral, daily for 35 days, in 20% hydroxypropyl β-cyclodextrin
Description: Following the General Preparation procedure described above, the rats were treated daily for 35 days (6 rats per treatment group) and sacrificed by decapitation on the 36th day. The 35 day time period was sufficient to allow maximal effect on bone density, measured as described herein. At the time of sacrifice, the uteri were removed, dissected free of extraneous tissue, and the fluid contents were expelled before determination of wet weight in order to confirm estrogen deficiency associated with complete ovariectomy. […] The uteri were then placed in 10% neutral buffered formalin to allow for subsequent histological analysis.
The right tibias were excised and scanned at the distal metaphysis 1 mm from the patellar groove with single photon absorptiometry. Results of the densitometer measurements represent a calculation of bone density as a function of the bone mineral content and bone width.
In accordance with the procedures outlined above, compounds of the present invention and EE2 in 20% hydroxypropyl β-cyclodextrin were orally administered to test animals.

[7] = Rattus norvegicus, 96 h, oral, daily for 4 days, OVX rats, * = significantly different than OVX control, read-out: Serum Cholesterol (% dec. OVX)

SMILES | pEC50 [1] | Uterine EPO (Vmax) ([2]; Dose 0.1 mg/kg) | Uterine EPO (Vmax) ([2]; Dose 1 mg/kg) | Uterine EPO (Vmax) ([2]; Dose 10 mg/kg) | Uterine Weight (% inc. OVX) ([3]; Dose 0.1 mg/kg) [%] | inhibition in vivo at 0.1 mg/kg [4, 7] [%] | other results
CC(C#N)Oc1ccc(C(=O)c2c(-c3ccc(O)cc3)sc3cc(O)ccc23)cc1 (centres unmarked) [Compound 16] | 10.70 | 2.3 | 3.9 | 23.4 |  |  | 
O=C(NCCOc1ccc(C(=O)c2c(-c3ccc(O)cc3)sc3cc(O)ccc23)cc1)c1ccccc1 [Compound 18] | 6.30 | 3.2 | 3.6 | 3.6 |  |  | 
CC(=O)N(CCOc1ccc(C(=O)c2c(-c3ccc(O)cc3)sc3cc(O)ccc23)cc1)C1CCCCC1 [Compound 19] | 10.00 | 5.4 | 3.7 |  | 7 | 14.5 | 
O=C(NCCOc1ccc(C(=O)c2c(-c3ccc(O)cc3)sc3cc(O)ccc23)cc1)NC1CCCCC1 [Compound 20] | 10.00 | 3.0 | 2.5 | 2.9 | -29.9 | -27.2 | Uterine Weight (% inc. OVX) ([3]; Dose 1 mg/kg): -27.4%; Uterine Weight (% inc. OVX) ([3]; Dose 10 mg/kg): -32.7%; inhibition in vivo at 1 mg/kg [4, 7]: -6%; inhibition in vivo at 10 mg/kg ([4]; Rattus norvegicus, 96 h, Dose 10 mg/kg, oral, daily for 4 days, OVX rats, * = significantly different than OVX control, read-out: Serum Cholesterol (% dec. OVX)): -15.4%
O=C(c1ccc(OCCNC(=O)C2CCCCC2)cc1)c1c(-c2ccc(O)cc2)sc2cc(O)ccc12 [Compound 21] |  | 3.1 | 2.6 | 2.4 |  |  | 
CC(C)(C)C(=O)N1CCCCC1COc1ccc(C(=O)c2c(-c3ccc(O)cc3)sc3cc(O)ccc23)cc1 (centres unmarked) [Compound 22] | 11.00 |  |  |  |  |  | Uterine EPO (Vmax) ([5]; 0.1 mg/kg): 3.5; Uterine EPO (Vmax) ([5]; 1 mg/kg): 20.0; Uterine EPO (Vmax) ([5]; 10 mg/kg): 69.5*
CC(C)(C)C(=O)N1CCC(Oc2ccc(C(=O)c3c(-c4ccc(O)cc4)sc4cc(O)ccc34)cc2)CC1 [Compound 23] | 8.40 | 1.6 | 3.8 | 6.7 | -4.3 | -17.4 | Uterine Weight (% inc. OVX) ([3]; Dose 1 mg/kg): 0.8%; Uterine Weight (% inc. OVX) ([3]; Dose 10 mg/kg): 22.3%; inhibition in vivo at 1 mg/kg [4, 7]: -5.2%
CC(=O)NCCOc1ccc(C(=O)c2c(-c3ccc(O)cc3)sc3cc(O)ccc23)cc1 [Compound 26] |  | 1.3 | 0.7 | 13.6 | -17.5 | 15.8 | 
C#C[C@]1(O)CC[C@H]2[C@@H]3CCc4cc(O)ccc4[C@H]3CC[C@@]21C [ethynyl estradiol, 17α-Ethynyl estradiol, reference compound] |  | 120.0* |  |  |  | 89.6 | uterine weight (result in words) ([3]; rat, in vivo, po, 0.1 mg/kg/day): marked stimulatory action on the uterus; serum cholesterol (result in words) ([4]; compared to ovariectomized control animals, four day dosing, EE2 orally at 0.1 mg/Kg/day): caused a decrease in serum cholesterol; tibia density / bone loss (result in words) [6]: prevented this loss; eosinophil infiltration into the uterus (result in words) ([2]; ovariectomized rats, measured by assay of eosinophil peroxidase activity): substantial, expected increase in eosinophil infiltration
